Assay results published in ChEMBL document CHEMBL5729244, “Heterocycle compounds as Tyro3, Axl and MerTK (TAM) family of receptor tyrosine kinase inhibitors” (2022).

Legend:
[1] = target: T1, Tyrosine-protein kinase receptor UFO (Homo sapiens, UniProt P30530)
T1 sequence (P30530 whole entry): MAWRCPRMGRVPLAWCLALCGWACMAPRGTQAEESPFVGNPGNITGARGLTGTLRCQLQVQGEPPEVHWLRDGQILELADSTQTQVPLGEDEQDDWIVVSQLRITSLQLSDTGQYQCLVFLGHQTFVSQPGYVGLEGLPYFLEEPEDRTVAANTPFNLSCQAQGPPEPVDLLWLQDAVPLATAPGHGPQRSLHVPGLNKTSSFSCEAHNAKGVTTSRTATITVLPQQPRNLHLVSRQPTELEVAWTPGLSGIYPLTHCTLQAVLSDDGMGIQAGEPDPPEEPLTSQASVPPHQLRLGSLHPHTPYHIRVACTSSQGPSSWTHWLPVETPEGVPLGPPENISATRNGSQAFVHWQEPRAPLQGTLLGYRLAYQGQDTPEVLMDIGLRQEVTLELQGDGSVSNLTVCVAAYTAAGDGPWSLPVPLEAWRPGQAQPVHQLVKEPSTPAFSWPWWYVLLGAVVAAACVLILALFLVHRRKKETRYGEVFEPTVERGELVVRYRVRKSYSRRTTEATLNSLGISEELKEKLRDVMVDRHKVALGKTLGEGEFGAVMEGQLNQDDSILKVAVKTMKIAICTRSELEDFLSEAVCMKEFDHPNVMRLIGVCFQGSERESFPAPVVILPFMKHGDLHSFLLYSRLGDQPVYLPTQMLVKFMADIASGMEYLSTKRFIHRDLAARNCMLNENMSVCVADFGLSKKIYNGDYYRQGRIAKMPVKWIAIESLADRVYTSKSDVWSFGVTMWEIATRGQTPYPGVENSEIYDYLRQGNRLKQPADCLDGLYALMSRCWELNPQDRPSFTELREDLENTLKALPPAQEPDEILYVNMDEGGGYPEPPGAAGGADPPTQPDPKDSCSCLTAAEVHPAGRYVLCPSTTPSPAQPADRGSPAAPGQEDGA

[2] = target: T2, Tyrosine-protein kinase Mer (Homo sapiens, UniProt Q12866)
T2 sequence (Q12866 whole entry): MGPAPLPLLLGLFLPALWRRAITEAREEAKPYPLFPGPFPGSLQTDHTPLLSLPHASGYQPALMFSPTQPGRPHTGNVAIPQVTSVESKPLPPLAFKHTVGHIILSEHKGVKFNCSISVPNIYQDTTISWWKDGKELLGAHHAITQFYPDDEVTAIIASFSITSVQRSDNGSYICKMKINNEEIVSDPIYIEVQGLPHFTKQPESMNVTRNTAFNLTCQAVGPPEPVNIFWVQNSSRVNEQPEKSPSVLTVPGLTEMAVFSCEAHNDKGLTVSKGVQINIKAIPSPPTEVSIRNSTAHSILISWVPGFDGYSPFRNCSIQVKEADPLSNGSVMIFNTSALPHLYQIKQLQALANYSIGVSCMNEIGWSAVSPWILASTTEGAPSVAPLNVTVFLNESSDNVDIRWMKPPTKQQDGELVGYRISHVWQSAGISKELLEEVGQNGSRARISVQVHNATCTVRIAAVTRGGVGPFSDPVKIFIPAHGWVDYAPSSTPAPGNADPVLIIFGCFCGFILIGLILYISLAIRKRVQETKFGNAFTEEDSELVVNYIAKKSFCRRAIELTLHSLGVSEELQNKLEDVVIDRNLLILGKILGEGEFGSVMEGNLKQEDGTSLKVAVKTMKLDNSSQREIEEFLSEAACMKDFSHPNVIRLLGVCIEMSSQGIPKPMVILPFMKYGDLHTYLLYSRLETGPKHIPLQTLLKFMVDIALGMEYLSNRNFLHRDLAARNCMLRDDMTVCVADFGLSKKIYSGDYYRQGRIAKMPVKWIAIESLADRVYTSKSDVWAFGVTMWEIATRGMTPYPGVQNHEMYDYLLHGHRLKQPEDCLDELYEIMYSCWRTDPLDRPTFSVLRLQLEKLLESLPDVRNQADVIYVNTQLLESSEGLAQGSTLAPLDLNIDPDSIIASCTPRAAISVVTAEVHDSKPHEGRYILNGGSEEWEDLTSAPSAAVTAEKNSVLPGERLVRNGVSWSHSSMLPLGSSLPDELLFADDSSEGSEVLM

Row | IC50 [1] [nM] | IC50 [2] [nM] | SMILES
1 | < 30 | > 1000 | COCCOc1nc(Nc2ccc(CN3CCN(C)CC3)cc2)nc2[nH]cc(-c3ccc4c(n3)CN(C)S4(=O)=O)c12
2 | < 30 | – | COc1nc(Nc2ccc(CN3CCC(C)CC3)cc2)nc2[nH]cc(-c3ccc(F)cc3F)c12
